Assay results as given in ChEMBL document CHEMBL5375968, “Peptide TK-HR from the Skin of Chinese Folk Medicine Frog Hoplobatrachus Rugulosus Accelerates Wound Healing via the Activation of the Neurokinin-1 Receptor” (J Med Chem, 2023).
Activity calls are given as the source filed them. The calls are words filed in the database; no cut-off is given here.

What was measured:
[1] = tested on: HUVEC; experiment: Induction of cell migration in Mitomycin C-treated HUVEC cells assessed as healing rate at 20 uM measured after 48 hrs by scratch healing assay (reference value: 51.6 %); format: functional, Homo sapiens
[2] = Induction of wound healing in BALB/c mouse model of full-thickness wounds at 50 ug/ml, TOP bid pretreated with Aprepitant for 2 hrs followed by compound administration measured after 8 days (reference value: 82.1 %); format: functional; conditions: dose 50 µg/ml, time 8 day
[3] = species: Mus musculus; experiment: Induction of wound healing in BALB/c mouse model of full-thickness wounds assessed as increase in granulation tissue formation at 50 ug/ml, TOP bid measured after 8 days by H and E staining based analysis; format: functional; conditions: dose 50.0 µg/ml, time 8.0 day
[4] = tested on: HUVEC; experiment: Induction of cell migration in Aprepitant-treated HUVEC cells assessed as healing rate at 20 uM measured after 24 hrs by scratch healing assay (reference value: 30.2 %); format: functional, Homo sapiens
[5] = species: Mus musculus; experiment: Induction of wound healing in BALB/c mouse model of full-thickness wounds assessed as increase in phosphorylated Smad2 level in wound skin at 50 to 200 ug/ml, TOP bid measured after 4 days by Western blot analysis; format: functional; conditions: dose 50-200 µg/ml, time 4.0 day
[6] = tested on: Cutibacterium acnes; experiment: Antimicrobial activity against Propionibacterium acnes ATCC 6919 assessed as microbial growth inhibition at 100 uM; format: functional, organism-based
[7] = tested on: Neutrophil; experiment: Induction of phagocytosis in BALB/c mouse neutrophils cultured with CFSE-labeled Escherichia coli ATCC 25922 at 10 uM pretreated for 1 hr followed by bacterial exposure measured after 1.5 hrs by fluorescence microscopy; format: functional, cell-based; conditions: time 2.5 hrs
[8] = tested on: RAW264.7; experiment: Upregulation of phosphorylated ERK level in mouse RAW264.7 cells at 2.5 to 20 uM incubated for 4 hrs by Western blot analysis; format: functional, cell-based; conditions: dose 2.5-20 µM
[9] = Toxicity in BALB/c mouse model of full-thickness wounds assessed as inflammatory foci in spleen at 200 ug/ml, TOP bid measured upto 8 days by H and E staining based analysis; format: tissue-based; conditions: in vivo, topical_or_ocular, 192 h, dose 200 µg/ml, time < 8 day
[10] = tested on: HUVEC; experiment: Angiogenic activity in HUVEC cells assessed as increase in tube formation at 5 uM measured for 4 hrs by microscopic analysis relative to control; format: functional, Homo sapiens
[11] = tested on: Pseudomonas aeruginosa; experiment: Antimicrobial activity against Pseudomonas aeruginosa ATCC 27853 assessed as microbial growth inhibition at 100 uM; format: functional, organism-based
[12] = species: Mus musculus; experiment: Induction of wound healing in BALB/c mouse model of full-thickness wounds assessed as increase in TGF-1beta production in wound skin at 50 to 200 ug/ml, TOP bid measured after 2 to 4 days by ELISA; format: functional; conditions: dose 50-200 µg/ml, time 2-4 day
[13] = Induction of wound healing in BALB/c mouse model of full-thickness wounds at 50 ug/ml, TOP bid measured after 2 days (reference value: 30.4 %); format: functional; conditions: dose 50 µg/ml, time 2 day
[14] = species: Mus musculus; experiment: Induction of wound healing in BALB/c mouse model of full-thickness wounds assessed as decrease in TNF-alpha level in wound skin at 50 ug/ml, TOP bid measured after 4 days by ELISA; format: functional; conditions: dose 50.0 µg/ml, time 4.0 day
[15] = tested on: Splenic fibroblast; experiment: Effect on Smad3 activation in human […] fibroblasts upto 20 uM by Western blot analysis; format: functional, cell-based
[16] = Induction of wound healing in BALB/c mouse model of full-thickness wounds at 100 ug/ml, TOP bid measured after 4 days (reference value: 48.6 %); format: functional; conditions: dose 100 µg/ml, time 4 day
[17] = tested on: HaCaT; experiment: Induction of cell migration in human HaCaT cells assessed as formation of filopodia extensions at 20 uM measured after 24 hrs by immunofluorescence microscopy; format: functional, cell-based
[18] = tested on: RAW264.7; experiment: Induction of phagocytosis in mouse RAW264.7 cells assessed as increase in neutral red dye uptake by measuring optical density at 540 nm at 20 uM incubated for 24 hrs followed by dye addition measured after 4 hrs by absorbance based assay (reference value: 0.073); format: functional; conditions: time 28 hrs
[19] = tested on: Aorta; experiment: Ex vivo angiogenic activity in C57BL/6 mouse aortic ring assessed as increase in sprouting by measuring vessel outgrowth area at 20 uM measured for 7 days by microscopic analysis relative to control; format: functional; conditions: time 7 day
[20] = Induction of wound healing in BALB/c mouse model of full-thickness wounds at 50 ug/ml, TOP bid measured after 4 days (reference value: 48.6 %); format: functional; conditions: dose 50 µg/ml, time 4 day
[21] = tested on: HUVEC; experiment: Induction of cell migration in HUVEC cells assessed as formation of cytoplasmic protrusions at 20 uM measured after 24 hrs by immunofluorescence microscopy; format: functional, cell-based; conditions: Homo sapiens
[22] = tested on: HUVEC; experiment: Induction of cell migration in Aprepitant-treated HUVEC cells assessed as healing rate at 20 uM measured after 48 hrs by scratch healing assay (reference value: 57.2 %); format: functional, Homo sapiens
[23] = species: Mus musculus; experiment: Induction of wound healing in BALB/c mouse model of full-thickness wounds assessed as increase in phosphorylated Smad2 level in wound skin at 50 ug/ml, TOP bid measured after 4 days by Western blot analysis; format: functional; conditions: dose 50.0 µg/ml, time 4.0 day
[24] = species: Mus musculus; experiment: Induction of wound healing in BALB/c mouse model of full-thickness wounds assessed as increase in ratio of phosphorylated Smad3 level to total Smad3 level in wound skin at 50 to 200 ug/ml, TOP bid measured after 8 days by Western blot analysis; format: functional; conditions: dose 50-200 µg/ml, time 8.0 day
[25] = species: Mus musculus; experiment: Induction of wound healing in BALB/c mouse model of full-thickness wounds assessed as increase in endothelial cells in wound skin at 50 ug/ml, TOP bid measured after 4 days by IHC analysis; format: functional, cell-based; conditions: dose 50.0 µg/ml, time 4.0 day
[26] = tested on: RAW264.7; experiment: Upregulation of phosphorylated p38 level in Aprepitant-treated mouse RAW264.7 cells at 2.5 to 20 uM incubated for 4 hrs by Western blot analysis; format: functional, cell-based; conditions: dose 2.5-20 µM
[27] = tested on: Neutrophil; experiment: Induction of cell migration in BALB/c mouse neutrophils incubated for 8 hrs by transwell migration assay; format: functional, cell-based; conditions: dose 5-40 µM
[28] = Toxicity in BALB/c mouse model of full-thickness wounds assessed as animal death at 50 to 200 ug/ml, TOP bid measured upto 8 days; conditions: in vivo, topical_or_ocular, 192 h, dose 50-200 µg/ml, time < 8 day
[29] = tested on: RAW264.7; experiment: Cytotoxicity against mouse RAW264.7 cells assessed as cell viability at 5 to 40 uM incubated for 24 hrs by MTT assay; format: toxicity, cell-based; conditions: raw264.7, 24 h, dose 5-40 µM
[30] = tested on: Neutrophil; experiment: Induction of chemotaxis in BALB/c mouse neutrophils assessed as increase in cell polarization measured for 15 mins by Zigmond-chamber based microscopy; format: functional; conditions: dose 5-40 µM
[31] = Toxicity in BALB/c mouse model of full-thickness wounds assessed as adverse effect on body weight at 50 to 200 ug/ml, TOP bid measured upto 8 days; conditions: in vivo, topical_or_ocular, 192 h, dose 50-200 µg/ml, time < 8 day
[32] = tested on: RAW264.7; experiment: Effect on total JNK level in mouse RAW264.7 cells at 2.5 to 20 uM incubated for 4 hrs by Western blot analysis; format: functional, cell-based; conditions: dose 2.5-20 µM
[33] = Induction of wound healing in BALB/c mouse model of full-thickness wounds at 50 ug/ml, TOP bid pretreated with Aprepitant for 2 hrs followed by compound administration measured after 2 days (reference value: 35.3 %); format: functional; conditions: dose 50 µg/ml, time 2 day

H-KPNPDRFYGLM-NH2
Activity [1]: 78.7%
Activity [2]: 82.5%
Activity [3]: Active
Activity [4]: 35.9%
Activity [5]: Active
Activity [6]: inactive
Activity [7]: Active
Activity [8]: Active
Activity [9]: Non-Toxic
Activity [10]: 85.3%
Activity [11]: inactive
Activity [12]: Active
Activity [13]: 38.9%
Activity [14]: Active
Activity [15]: inactive
Activity [16]: 70.9%
Activity [17]: Active
OD [18]: 0.109
Activity [19]: 193.8%
Activity [20]: 64.8%
Activity [21]: Active
Activity [22]: 65%
Activity [23]: Active
Activity [24]: inactive
Activity [25]: Active
Activity [26]: inactive
Activity [27]: Dose-Dependent Effect
Activity [28]: Non-Toxic
Activity [29]: Non-Toxic
Activity [30]: Dose-Dependent Effect
Activity [31]: Non-Toxic
Activity [32]: inactive
Activity [33]: 38.7%
